Molecular target: T1, Soybean 15-LOX enzyme (Glycine max, UniProt P08170)
T1 construct: purchased Cayman Chemical 760700
T1 sequence (P08170 1-839): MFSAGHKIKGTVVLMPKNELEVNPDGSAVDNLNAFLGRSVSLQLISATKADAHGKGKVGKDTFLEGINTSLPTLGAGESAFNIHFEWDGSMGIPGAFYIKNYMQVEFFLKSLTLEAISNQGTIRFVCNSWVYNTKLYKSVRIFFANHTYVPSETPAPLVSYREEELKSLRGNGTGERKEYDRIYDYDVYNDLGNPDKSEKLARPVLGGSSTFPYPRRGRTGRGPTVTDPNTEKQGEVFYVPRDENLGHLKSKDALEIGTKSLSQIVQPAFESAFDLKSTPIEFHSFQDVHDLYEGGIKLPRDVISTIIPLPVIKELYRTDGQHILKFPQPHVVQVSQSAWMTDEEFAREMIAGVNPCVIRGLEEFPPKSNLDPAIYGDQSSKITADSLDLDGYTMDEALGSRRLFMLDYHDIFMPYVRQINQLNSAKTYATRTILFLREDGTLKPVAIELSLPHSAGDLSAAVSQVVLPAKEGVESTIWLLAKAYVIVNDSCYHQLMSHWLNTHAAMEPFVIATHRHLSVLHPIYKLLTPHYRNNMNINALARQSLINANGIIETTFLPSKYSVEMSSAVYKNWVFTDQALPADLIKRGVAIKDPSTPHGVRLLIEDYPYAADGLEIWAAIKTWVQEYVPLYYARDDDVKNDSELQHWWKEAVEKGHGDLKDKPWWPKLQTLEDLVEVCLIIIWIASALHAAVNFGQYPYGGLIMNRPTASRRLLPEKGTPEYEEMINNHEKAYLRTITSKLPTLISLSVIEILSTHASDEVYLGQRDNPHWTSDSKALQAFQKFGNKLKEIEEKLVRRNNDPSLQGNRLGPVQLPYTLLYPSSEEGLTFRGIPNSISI
Test: In vitro lipoxygenase inhibition (Cayman lipoxygenase inhibitor screening assay kit)
Assay type: biochemical
Details: for IC50: mean ± SEM of three experiments, substrate arachidonic acid; for 15-LOX inhibition potency relative to quercetin: folds that of quercetin
Experimental: The assay was performed using Cayman’s lipoxygenase inhibitor screening assay kit (Catalog No. 760700, Cayman Chemical, USA) according to the manufacturer’s instructions. Briefly, 90 µL of 15-LOX was pipetted into a 96-well plate. Next, 10 µL of test compound at concentrations (2.5, 5.0 and 10 µM) dissolved in DMSO were added to each well. The reaction was initiated by adding 10 µL substrate (AA) and the plate was placed on a shaker for at least 5 minutes. Finally, 100 µL of chromogen (prepared according to manufacturer’s instructions) was added to each well to stop enzyme catalysis and develop the reaction. 100 µL of Assay buffer (0.1 M Tris-HCl, pH7.4) was used in blank wells. […] The absorbance of the solution was measured at λ 490–500 nm. The percentage inhibition was calculated according to the following equation: % inhibition =[(IA−Ainhibitor sample)/IA]×100 where (IA) is the 100% initial activity and (Ainhibitor sample) is the absorbance of the test sample. Dose–response curve was plotted between % inhibition and the drug concentration. The non-linear dose–response curve was used for calculating drug concentration showing 50% enzyme inhibition.

Compound	IC50 [nM]	15-LOX inhibition potency relative to quercetin [folds]
Clc1ccc(C2=NN(c3ccccc3)C(c3cn(-c4ccccc4)nc3-c3ccc4ccccc4c3)C2)cc1Cl (stereo not drawn) [Compound 4e, 5-(3,4-Dichlorophenyl)-3′-naphthalen-2-yl-2,1′-diphenyl-3,4-dihydro-2H,1’H-[3,4′]-bipyrazole]	3530 ± 70	
COc1ccc(C2=NOC(c3cn(-c4ccccc4)nc3-c3ccc4ccccc4c3)C2)cc1 (stereo not drawn) [Compound 5b, 3-(4-Methoxyphenyl)-5-(3-naphthalen-2-yl-1-phenyl-1H-pyrazol-4-yl)-4,5-dihydro isoxazole]	4370 ± 90	
Cc1ccc(C2=NOC(c3cn(-c4ccccc4)nc3-c3ccc4ccccc4c3)C2)cc1 (stereo not drawn) [Compound 5c, 5-(3-Naphthalen-2-yl-1-phenyl-1H-pyrazol-4-yl)-3-p-tolyl-4,5-dihydroisoxazole]	4230 ± 70	

The next molecules have a lower IC50 than those just listed; values first:

IC50 [nM]	15-LOX inhibition potency relative to quercetin [folds]	Compound
2230 ± 70		c1ccc(C2=NNC(c3cn(-c4ccccc4)nc3-c3ccc4ccccc4c3)C2)cc1 (stereo not drawn) [Compound 3a, 3′-Naphthalen-2-yl-5,1′-diphenyl-3,4-dihydro-2H,1’H-[3,4′]bipyrazole]
2100 ± 60		Cc1ccc(C2=NN(C(N)=S)C(c3cn(-c4ccccc4)nc3-c3ccc4ccccc4c3)C2)cc1 (stereo not drawn) [Compound 6c, 3′-Naphthalen-2-yl-1′-phenyl-5-p-tolyl-3,4-dihydro-1’H-[3,4′]bipyrazolyl-2-carbo thioic acid amide]
1570 ± 30	2.1	NC(=S)N1N=C(c2ccc(Cl)c(Cl)c2)CC1c1cn(-c2ccccc2)nc1-c1ccc2ccccc2c1 (stereo not drawn) [Compound 6e]
1500 ± 60	2.2	NC(=S)N1N=C(c2ccccc2)CC1c1cn(-c2ccccc2)nc1-c1ccc2ccccc2c1 (stereo not drawn) [Compound 6a, 3′-Naphthalen-2-yl-5,1′-diphenyl-3,4-dihydro-1’H-[3,4′]bipyrazolyl-2-carbothioic acid amide]

— paper PMC7170299, “Design, synthesis, molecular modelling and biological evaluation of novel 3-(2-naphthyl)-1-phenyl-1H-pyrazole derivatives as potent antioxidants and 15-Lipoxygenase inhibitors” (Journal of Enzyme Inhibition and Medicinal Chemistry, 2020)
